Source: patent publication US11053235B2, “Substituted 1,4-dihydropyrimidines for the treatment of HBV infection or HBV-induced diseases” (Janssen Sciences Ireland Unlimited Company, priority 2018, dated 2021)
Where two headings read alike, the source gives them in different places.

Key:
Assay type in all cases: cell-based
HepG2.2.15 cells = assay: Cytotoxicity determination in HepG2.2.15 cells (CCK-8); details: 6 days treatment, CCK-8, highest concentration 100 uM
In short: (§1)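 CC50 derived from CCK-8 absorbance (450 nm, 630 nm reference) after 2.5 h incubation at 37 °C. Before that, HepG2.2.15 cells (5,000/well, 2% FBS) received an 8-point, 3-fold compound series topping at 100 uM for 6 days, with one mid-treatment medium change.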

HBV = assay: Anti-viral assay in HepG2.2.15 cells: HBV inhibitory activity (HBV DNA in culture medium by q-PCR); details: HepG2.2.15 cells, 6 days treatment, HBV DNA in culture medium by q-PCR, highest concentration 10 uM, read-out: EC50
In short: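 HBV DNA released into the medium was measured by q-PCR after 6-day compound exposure of HepG2.2.15 cells (40,000/well, 2% FBS, one mid-course medium change). Eight 3-fold dilutions, highest 10 uM; EC50 derived by curve fitting.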

[1] = Cytotoxicity determination in HepG2.2.15 cells (CCK-8); details: human, 6 days treatment, CCK-8, highest concentration 100 uM
In short: as §1

[2] = Hepatitis B virus, HepG2.2.15, 144 h

| Compound | CC50 (HepG2.2.15 cells) [µM] | EC50 (HBV) [nM] | CC50 at 6 days [1] [µM] | EC50 (HBV; [2]) [nM] |
| --- | --- | --- | --- | --- |
| CCOC(=O)C1=C(C2CC=C(c3nc(C(=O)O)co3)CC2)NC(c2nccs2)=NC1c1ccc(F)c(F)c1Cl (single isomer, unassigned) [Compound I-13-D, 2-(4-(6-(2-chloro-3,4-difluorophenyl)-5-(ethoxycarbonyl)-2-(thiazol-2-yl)-3,6-dihydropyrimidin-4-yl)cyclohex-1-en-1-yl)oxazole-4-carboxylic Acid] | 6.09 | 3.2 | – | – |
| COC(=O)C1=C(C2CCN(c3ncc(N4CCC(C(=O)O)CC4)cn3)CC2)NC(c2nccs2)=NC1c1ccc(F)cc1Cl (single isomer, unassigned) [II-90-B, 1-(2-(4-(6-(2-chloro-4-fluorophenyl)-5-(methoxycarbonyl)-2-(thiazol-2-yl)-3,6-dihydropyrimidin-4-yl)piperidin-1-yl)pyrimidin-5-yl)piperidine-4-carboxylic acid] | – | – | 19 | 5.4 |
| COC(=O)C1=C(C2CCN(c3ncc(N(C)C)c(C(=O)O)n3)CC2)NC(c2nccs2)=NC1c1ccc(F)c(F)c1Cl (single isomer, unassigned) [II-91-B, 2-(4-(6-(2-chloro-3,4-difluorophenyl)-5-(methoxycarbonyl)-2-(thiazol-2-yl)-3,6-dihydropyrimidin-4-yl)piperidin-1-yl)-5-(dimethylamino)pyrimidine-4-carboxylic Acid] | – | – | 26.1 | 12 |
| COC(=O)C1=C(C2CCN(c3ncc(N)c(C(=O)O)n3)CC2)NC(c2nccs2)=NC1c1ccc(F)c(F)c1Cl (single isomer, unassigned) [II-92-B, 5-amino-2-(4-(6-(2-chloro-3,4-difluorophenyl)-5-(methoxycarbonyl)-2-(thiazol-2-yl)-3,6-dihydropyrimidin-4-yl)piperidin-1-yl)pyrimidine-4-carboxylic Acid] | – | – | 18.3 | 7 |
| COC(=O)C1=C(C2CCN(c3cc(C(=O)O)c(N(C)C)cn3)CC2)NC(c2nccs2)=NC1c1ccc(F)c(F)c1Cl (single isomer, unassigned) [II-93-B, 2-(4-(6-(2-chloro-3,4-difluorophenyl)-5-(methoxycarbonyl)-2-(thiazol-2-yl)-3,6-dihydropyrimidin-4-yl)piperidin-1-yl)-5-(dimethylamino)isonicotinic Acid] | – | – | 28.9 | 6.6 |
| COC(=O)C1=C(C2CCN(c3ncc(C)c(C(=O)O)n3)CC2)NC(c2nccs2)=NC1c1ccc(F)c(F)c1C (single isomer, unassigned) [II-94-B, 2-(4-(6-(3,4-Difluoro-2-methylphenyl)-5-(methoxycarbonyl)-2-(thiazol-2-yl)-3,6-dihydropyrimidin-4-yl)piperidin-1-yl)-5-methylpyrimidine-4-carboxylic Acid] | – | – | 26.8 | 6.1 |
| COC(=O)C1=C(C2CCN(c3ncc(OC)c(C(=O)O)n3)CC2)NC(c2nccs2)=NC1c1ccc(F)c(F)c1C (single isomer, unassigned) [II-95-B, 2-(4-(6-(3,4-Difluoro-2-methylphenyl)-5-(methoxycarbonyl)-2-(thiazol-2-yl)-3,6-dihydropyrimidin-4-yl)piperidin-1-yl)-5-methoxypyrimidine-4-carboxylic Acid] | – | – | 25.8 | 8.6 |
| CCOC(=O)C1=C(C2CCN(c3ncc(OCC)c(C(=O)O)n3)CC2)NC(c2nccs2)=NC1c1ccc(F)c(F)c1Cl (single isomer, unassigned) [II-96-B, 2-(4-(6-(2-chloro-3,4-difluorophenyl)-5-(ethoxycarbonyl)-2-(thiazol-2-yl)-3,6-dihydropyrimidin-4-yl)piperidin-1-yl)-5-ethoxypyrimidine-4-carboxylic Acid] | – | – | 16.3 | 5.1 |
| CCOC(=O)C1=C(C2CCN(c3ncc(N(C)C)c(C(=O)O)n3)CC2)NC(c2nccs2)=NC1c1cccc(F)c1Br (single isomer, unassigned) [II-97-B, 2-(4-(6-(2-Bromo-3-fluorophenyl)-5-(ethoxycarbonyl)-2-(thiazol-2-yl)-3,6-dihydropyrimidin-4-yl)piperidin-1-yl)-5-(dimethylamino)pyrimidine-4-carboxylic Acid] | – | – | 27.6 | 14 |
| COC(=O)C1=C(C2CCN(c3ncc(C)c(C(=O)O)n3)CC2)NC(c2nccs2)=NC1c1cccc(F)c1Br (single isomer, unassigned) [II-98-B, 2-(4-(6-(2-Bromo-3-fluorophenyl)-5-(methoxycarbonyl)-2-(thiazol-2-yl)-3,6-dihydropyrimidin-4-yl)piperidin-1-yl)-5-methylpyrimidine-4-carboxylic Acid] | – | – | 21.4 | 20 |
| COC(=O)C1=C(C2CCN(c3ncc(C)c(C(=O)O)n3)CC2)NC(c2nccs2)=NC1c1ccc(F)cc1Br (single isomer, unassigned) [II-99-B, 2-(4-(6-(2-Bromo-4-fluorophenyl)-5-(methoxycarbonyl)-2-(thiazol-2-yl)-3,6-dihydropyrimidin-4-yl)piperidin-1-yl)-5-methylpyrimidine-4-carboxylic Acid] | – | – | 20.7 | 7.3 |
| CCOC(=O)C1=C(C2CCN(c3ncc(N(C)C)c(C(=O)O)n3)CC2)NC(c2nccs2)=NC1c1ccc(F)cc1Br (single isomer, unassigned) [II-100-B, 2-(4-(6-(2-bromo-4-fluorophenyl)-5-(ethoxycarbonyl)-2-(thiazol-2-yl)-3,6-dihydropyrimidin-4-yl)piperidin-1-yl)-5-(dimethylamino)pyrimidine-4-carboxylic Acid] | – | – | 24.5 | 22 |
| COC(=O)C1=C(C2CCN(c3ccc(CCC(=O)O)cn3)CC2)NC(c2nccs2)=NC1c1ccc(F)cc1Cl (single isomer, unassigned) [II-101-B, 3-(6-(4-(6-(2-Chloro-4-fluorophenyl)-5-(methoxycarbonyl)-2-(thiazol-2-yl)-3,6-dihydropyrimidin-4-yl)piperidin-1-yl)pyridin-3-yl)propanoic Acid] | – | – | 16.6 | < 4.6 |
| CCOC(=O)Cc1ccnc(N2CCC(C3=C(C(=O)OC)C(c4ccc(F)cc4Cl)N=C(c4nccs4)N3)CC2)n1 (single isomer, unassigned) [XI-13-S, Methyl 4-(2-chloro-4-fluorophenyl)-6-(1-(4-(2-ethoxy-2-oxoethyl)pyrimidin-2-yl)piperidin-4-yl)-2-(thiazol-2-yl)-1,4-dihydropyrimidine-5-carboxylate] | – | – | > 100 | 150 |
| CCOC(=O)C1=C(C2CCN(c3nc(C(=O)OCC)co3)C2)NC(c2nccs2)=NC1c1ccc(F)c(F)c1Cl (single isomer, unassigned) [XI-85-M, Ethyl 2-(3-(6-(2-chloro-3,4-difluorophenyl)-5-(ethoxycarbonyl)-2-(thiazol-2-yl)-3,6-dihydropyrimidin-4-yl)pyrrolidin-1-yl)oxazole-4-carboxylate] | – | – | 11.6 | 770 |
| CCOC(=O)C1=C(C2CCC(c3cnn(C(C)CC(=O)O)c3)CC2)NC(c2nccs2)=NC1c1ccc(F)c(F)c1Cl (centres unmarked) [Compound I-31, 3-(4-(4-(6-(2-Chloro-3,4-difluorophenyl)-5-(ethoxycarbonyl)-2-(thiazol-2-yl)-3,6-dihydropyrimidin-4-yl)cyclohexyl)-1H-pyrazol-1-yl)butanoic Acid] | – | – | 3.78 | 59 |
| CCOC(=O)C1=C(C2CCC(c3cnn(C4CC(C(=O)O)C4)c3)CC2)NC(c2nccs2)=NC1c1ccc(F)c(F)c1Cl (centres unmarked) [Compound I-34, 3-(4-(4-(6-(2-Chloro-3,4-difluorophenyl)-5-(ethoxycarbonyl)-2-(thiazol-2-yl)-3,6-dihydropyrimidin-4-yl)cyclohexyl)-1H-pyrazol-1-yl)cyclobutanecarboxylic acid] | – | – | 2.79 | 55 |
| CCOC(=O)C1=C([C@H]2CC[C@H](c3nc(C(=O)O)no3)CC2)NC(c2nccs2)=NC1c1ccc(F)c(F)c1Cl (stereo partly drawn) [Compound I-45, (trans)-5-(-4-(6-(2-Chloro-3,4-difluorophenyl)-5-(ethoxycarbonyl)-2-(thiazol-2-yl)-3,6-dihydropyrimidin-4-yl)cyclohexyl)-1,2,4-oxadiazole-3-carboxylic Acid] | – | – | 16.8 | 71 |
| CCOC(=O)C1=C(C2CCN(c3ncc(C(=O)O)cn3)C(C)C2)NC(c2nccs2)=NC1c1ccc(F)c(F)c1Cl (centres unmarked) [II-34-F, 2-(4-(6-(2-chloro-3,4-difluorophenyl)-5-(ethoxycarbonyl)-2-(thiazol-2-yl)-3,6-dihydropyrimidin-4-yl)-2-methylpiperidin-1-yl)pyrimidine-5-carboxylic acid] | – | – | 7.96 | < 4.6 |
